{"source": "patent US12516058B2", "about": "“Small-molecule compounds for controlling endosomal toll-like receptors and therapeutic agent for autoimmune diseases using same” (priority 2020, dated 2026)", "note": "Entries after “also recorded” stand apart in the source; their conditions may differ.", "data": [{"target": "T1, TLR7 (Mus musculus, UniProt P58681)", "T1 construct": "endogenous in cells; host or cells: RAW 264.7", "T1 sequence (P58681 27-1050)": "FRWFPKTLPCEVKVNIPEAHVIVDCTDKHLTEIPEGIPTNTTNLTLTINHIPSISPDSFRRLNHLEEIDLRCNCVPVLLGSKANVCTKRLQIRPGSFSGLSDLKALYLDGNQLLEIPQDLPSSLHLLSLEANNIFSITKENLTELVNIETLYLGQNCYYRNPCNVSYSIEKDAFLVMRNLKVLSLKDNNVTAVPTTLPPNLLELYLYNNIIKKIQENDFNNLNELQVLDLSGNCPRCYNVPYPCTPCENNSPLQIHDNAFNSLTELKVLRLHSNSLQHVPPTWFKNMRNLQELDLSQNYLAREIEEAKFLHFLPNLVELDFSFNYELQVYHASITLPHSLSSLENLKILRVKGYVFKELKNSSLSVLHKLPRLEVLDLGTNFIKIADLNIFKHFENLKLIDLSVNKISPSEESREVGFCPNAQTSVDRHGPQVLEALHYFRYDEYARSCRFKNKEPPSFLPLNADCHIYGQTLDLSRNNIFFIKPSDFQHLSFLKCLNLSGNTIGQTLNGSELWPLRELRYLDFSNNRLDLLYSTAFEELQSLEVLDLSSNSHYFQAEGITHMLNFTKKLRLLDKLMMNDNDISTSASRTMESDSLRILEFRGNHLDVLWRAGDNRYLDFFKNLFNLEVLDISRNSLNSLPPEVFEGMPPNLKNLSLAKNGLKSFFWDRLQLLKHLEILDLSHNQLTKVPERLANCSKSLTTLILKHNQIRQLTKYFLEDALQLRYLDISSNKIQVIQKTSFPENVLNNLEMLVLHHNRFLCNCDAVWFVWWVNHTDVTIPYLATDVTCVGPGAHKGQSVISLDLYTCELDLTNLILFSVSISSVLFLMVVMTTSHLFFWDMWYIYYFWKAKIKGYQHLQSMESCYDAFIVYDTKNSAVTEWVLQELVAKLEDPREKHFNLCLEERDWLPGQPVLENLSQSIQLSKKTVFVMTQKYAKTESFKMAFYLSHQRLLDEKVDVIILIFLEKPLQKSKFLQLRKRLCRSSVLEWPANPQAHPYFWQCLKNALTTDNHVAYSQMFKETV", "test": "TNF-α secretion ELISA after TLR7 agonist imiquimod (IMQ) in RAW 264.7 cells", "format": "cell-based", "conditions": "SK01 and structural derivatives, inhibitor 1 h, then IMQ 4 h", "experimental": "(§1) In order to determine the inhibitory activities of the test-ligand, RAW 264.7 cells were pretreated with each candidate compound for 1 hour, then treated with Pam3CSK4 (synthetic triacyl lipopeptide; TLR1/2, Invitrogen), FSL-1 (synthetic diacyl lipoprotein, TLR2/6, 100 ng/ml), lipopolysaccharide (LPS, TLR4, Sigma Aldrich), imiquimod (IMQ, TLR7, Invitrogen), and ODN2395 (type C CpG repeat motif DNA oligo(5′-[…]-3), TLR9, Bioneer) ligand for 4 hours, and treated with poly I:C (I:C repeat motif double-stranded RNA, TLR3, Invitrogen) and TL8-506 (TLR8, Invitrogen) showing delayed reactivity for 24 hours. After activation of TLR, the supernatant was diluted in an appropriate ratio so as to measure within the standard dose range, transferred to a pre-coated 96-well assay plate, and then treated with mouse TNF-alpha secretion level in accordance with the manufacturer's instructions using a mouse-TNF-alpha ELISA-kit (Invitrogen).\n(§2) In order to plot the concentration-dependent LC50 curves, treatment with the SK series ligands at different concentrations up to 200 μM (the highest concentration that could be treated within the level of 0.5% DMSO) was performed. Then, cell viability and toxicity response upon treatment with ligands were analyzed by MTT as described in Examples 1-3. Cell viability in each plot was normalized from negative control (100%; no treatment) to positive control (highest concentration of test-ligand), and LC50 was determined by non-linear regression (Graph Pad Prism 7.0). In order to plot the concentration-dependent IC50 curves, pre-treatment with the SK series ligands was performed at different concentrations up to 50 μM (twice the initial concentration). Cell responses mediated by TLR7 and TLR9 (levels of TNF-α secretion) were analyzed by ELISA as described in Examples 1-4. The cytokine level in each plot was normalized from negative control (non-treated) to positive control (treatment with ligand), and IC50 was determined by non-linear regression (Graph Pad Prism 7.0).\n(§3) In order to select potential inhibitory molecules against TLR3/TLR7/TLR8/TLR9 activation, first, MTT (3-(4,5-dimethylthiazol-2-yl)-2,5-diphenyltetrazolium bromide) cell viability assay (FIG. 7) was performed upon treatment with a set of ligands from SK21 to SK82 at a concentration of 20 μM and the inhibitory activity thereof was evaluated by an ELISA assay to monitor the level of TNF-α secretion in RAW 264.7 cells. The experimental ligands from SK21 to SK82 were administered at 0.5 μM or 2 μM to the RAW 264.7 cells and stimulated with Imiquimod (TLR7, 1 μg/ml) and OND2395 (TLR9, 0.5 μM).", "values": [{"smiles": "Cc1c(C)n(CCN(C)C)c2nc3c(c(N)c12)CCCCC3", "note": "[SK01, 1-(2-(dimethylamino)ethyl)-2,3-dimethyl-1,5,6,7,8,9-hexahydrocyclohepta[b]pyrrolo[3,2-e]pyridin-4-amine]", "inhibitory activity against TLR7 activation (TNF-α secretion)": "inhibitory ability for TLR7/TLR9 activation was verified; also recorded: specifically inhibit"}, {"smiles": "Cc1c(C)n(CCCN(C)C)c2nc3c(c(N)c12)CCCCC3", "note": "[SK16, 1-(3-(dimethylamino)propyl)-2,3-dimethyl-1,5,6,7,8,9-hexahydrocyclohepta[b]pyrrolo[3,2-e]pyridin-4-amine]", "inhibitory activity against TLR7 activation (TNF-α secretion)": "potent inhibitor; also recorded: best inhibitory activity among the structural analogues of SK01; also recorded: specifically inhibit"}]}, {"target": "T1, TLR7", "test": "TNF-α secretion ELISA after TLR7 agonist imiquimod (IMQ) in RAW 264.7 cells", "format": "cell-based", "conditions": "SK21 to SK82 at 0.5 μM or 2 μM, Imiquimod 1 μg/ml", "experimental": "as §1, §2, §3", "values": [{"smiles": "Cc1cc2c(N)c3c(nc2n1CCCN(C)C)CCCCCC3", "note": "[SK41, 1-(3-(dimethylamino)propyl)-2-methyl-5,6,7,8,9,10-hexahydro-1H-cycloocta[b]pyrrolo[3,2-e]pyridin-4-amine]", "inhibitory activity against TLR7 (level of TNF-α secretion)": "significant inhibitory activity; also recorded: significantly reduced"}, {"smiles": "COc1ccc2c(c1)c1c(N)c3c(nc1n2CCCN(C)C)CCCC3", "note": "[SK50, 6-(3-(dimethylamino)propyl)-9-methoxy-2,3,4,6-tetrahydro-1H-indolo[2,3-b]quinolin-11-amine]", "inhibitory activity against TLR7 (level of TNF-α secretion)": "significant inhibitory activity; also recorded: significantly reduced"}, {"smiles": "Cc1ccc2c(c1)c1c(N)c3c(nc1n2CCCN(C)C)CCCC3", "note": "[SK58, 6-(3-(dimethylamino)propyl)-9-methyl-2,3,4,6-tetrahydro-1H-indolo[2,3-b]quinolin-11-amine]", "inhibitory activity against TLR7 (level of TNF-α secretion)": "significant inhibitory activity; also recorded: significantly reduced"}, {"smiles": "COC(=O)c1ccc2c(c1)c1c(N)c3c(nc1n2CCCN(C)C)CCCC3", "note": "[SK64, Methyl 11-amino-6-(3-(dimethylamino)propyl)-2,3,4,6-tetrahydro-1H-indolo[2,3-b]quinolin-9-carboxylate]", "inhibitory activity against TLR7 (level of TNF-α secretion)": "significant inhibitory activity; also recorded: significantly reduced"}]}]}
